In brackets after ≈: the same amount, converted by molar mass.
Assays:
[1] = system: Staphylococcus epidermidis 109; assay: Antibacterial activity against resistant strain (background statement); assay type: cell-based; details: Staphylococcus epidermidis 109, resistant strain producing enzyme reacting with the 4'-hydroxyl group
[2] = system: Staphylococcus aureus Ap 01; assay: as above; assay type: cell-based; details: Staphylococcus aureus Ap 01, resistant strain producing enzyme reacting with the 4'-hydroxyl group
[3] = system: Escherichia coli K-12 R5; assay: MIC, serial dilution on Mueller Hinton agar; assay type: cell-based; details: K12R5, 18 h
[4] = system: Klebsiella pneumoniae 22#3038; assay: MIC, serial dilution on Mueller Hinton agar; assay type: cell-based; details: Klebsiella pneumoniae 22#3038, resistance mechanism APH(3')-II, ANT(2"), 37°C, 18 hours
Excerpt: The antibacterial spectra so determined of the new compounds No. 1 to No. 13 (each in the form of the free base) of this invention are as shown in Table 1 below.

[5] = system: Escherichia coli JR66/W677; assay: microbe, parasite or virus in culture; assay type: cell-based; details: JR66/W677, 18 h
[6] = system: Staphylococcus aureus 209P; assay: MIC, serial dilution on Mueller Hinton agar; assay type: cell-based; details: Staphylococcus aureus, 209P, 18 h
[7] = system: Escherichia coli K-12 LA 290 R55; assay: MIC, serial dilution on Mueller Hinton agar; assay type: cell-based; details: Escherichia coli, K12LA290R55, 18 h
[8] = system: Escherichia coli JR225; assay: microbe, parasite or virus in culture; assay type: cell-based; details: Escherichia coli, JR225, 18 h
[9] = system: Staphylococcus aureus Ap01; assay: MIC, serial dilution on Mueller Hinton agar; assay type: cell-based; details: Staphylococcus aureus Ap01, resistance mechanism ANT(4'); Mueller Hinton agar, 37°C, 18 hours; read-out: MIC.
[10] = system: Bacillus subtilis PCI219; assay: MIC, serial dilution on Mueller Hinton agar; assay type: cell-based; details: Bacillus subtilis, PCI219, 18 h
[11] = system: Pseudomonas aeruginosa GN 315; assay: MIC, serial dilution on Mueller Hinton agar; assay type: cell-based; details: GN315; Pseudomonas aeruginosa GN 315, resistance mechanism AAC(6'); Mueller Hinton agar, 37°C, 18 hours; read-out: MIC.
[12] = system: Mycobacterium 607; assay: MIC, serial dilution on Mueller Hinton agar; assay type: cell-based; details: Mycobacterium 607; Mueller Hinton agar, 37°C, incubated for 40 hours; read-out: MIC.
[13] = system: Providencia sp. Pv 16; assay: MIC, serial dilution on Mueller Hinton agar; assay type: cell-based; details: Providencia, SP.PV16, 18 h
[14] = in vivo; details: mouse, iv
[15] = system: Escherichia coli K-12 ML 1629; assay: MIC, serial dilution on Mueller Hinton agar; assay type: cell-based; details: K12ML1629, Escherichia coli K-12 ML 1629, resistance mechanism APH(3')-I, 37°C, 18 hours
[16] = system: Corynebacterium bovis 1810; assay: MIC, serial dilution on Mueller Hinton agar; assay type: cell-based; details: Corynebacterium bovis 1810; Mueller Hinton agar, 37°C, 18 hours; read-out: MIC.
[17] = system: Pseudomonas aeruginosa A3; assay: MIC, serial dilution on Mueller Hinton agar; assay type: cell-based; details: Pseudomonas aeruginosa, A3, 18 h
[18] = system: Proteus rettgeri GN 311; assay: MIC, serial dilution on Mueller Hinton agar; assay type: cell-based; details: Providencia rettgeri, GN311, 18 h
[19] = system: Escherichia coli K-12; assay: MIC, serial dilution on Mueller Hinton agar; assay type: cell-based; details: Escherichia coli, K12, 18 h
[20] = system: Serratia marcescens; assay: MIC, serial dilution on Mueller Hinton agar; assay type: cell-based; details: Mueller Hinton agar, 37°C, 18 hours, read-out: MIC.

Structure (SMILES) | antibacterial activity [1] | antibacterial activity [2] | MIC [3] [µg/mL] | MIC [4] [µg/mL] | MIC [5] [µg/mL] | MIC [6] [µg/mL] | MIC [7] [µg/mL] | MIC [8] [µg/mL] | MIC [9] [µg/mL] | MIC [10] [µg/mL] | MIC [11] [µg/mL] | MIC [12] [µg/mL] | MIC [13] [µg/mL] | LD50 [14] [mg/kg] | MIC [15] [µg/mL] | MIC [16] [µg/mL] | MIC [17] [µg/mL] | MIC [18] [µg/mL] | MIC [19] [µg/mL] | MIC [20] [µg/mL]
NCC1OC(OC2C(N)CC(N)C(OC3OC(CO)C(O)C(N)C3O)C2O)C(N)C(F)C1O (centres unmarked) [3'-fluoro-3'-deoxykanamycin B] | low antibacterial activity | low antibacterial activity |  |  |  |  |  |  |  |  |  |  |  |  |  |  |  |  |  | 
NC[C@H]1O[C@H](O[C@H]2[C@H](O)[C@@H](O[C@H]3O[C@H](CO)[C@@H](O)[C@H](N)[C@H]3O)[C@H](N)C[C@@H]2N)[C@H](N)[C@@H](O)[C@@H]1O [KMB, kanamycin B] |  |  | 50 (≈ 103 µM) | > 100 | > 100 | 0.39 (≈ 0.807 µM) | 12.5 (≈ 25.9 µM) | 12.5 (≈ 25.9 µM) | 25 (≈ 51.7 µM) | < 0.2 | 50 (≈ 103 µM) | 1.56 (≈ 3.23 µM) | 12.5 (≈ 25.9 µM) | 110 | > 100 | 0.78 (≈ 1.61 µM) | 1.56 (≈ 3.23 µM) | 0.2 (≈ 0.414 µM) | 0.39 (≈ 0.807 µM) | 3.12 (≈ 6.45 µM)
